In paper PMC3793977, “High-Throughput Screening (HTS) and Hit Validation to Identify Small Molecule Inhibitors with Activity against NS3/4A proteases from Multiple Hepatitis C Virus Genotypes” (PLoS ONE, 2013):
Several values for one entry are separate records, joined by “and”; a condition that tells them apart may be missing. Equal entries are not always repeated.

Legend:
[1] = biological target: T1, full-length NS3/4A protease (genotype 1b) (Hepatitis C virus genotype 1b, UniProt Q9WMX2); assay: biochemical; details: purified full-length NS3/4A, genotype 1b wild-type; read-out: IC50 Full-length NS3/4A
T1 construct: wild-type HCV NS3 (HCV polyprotein residues 1027–1657); His-tag (N); made in house
Method: All assays were done in duplicate in black 384-well plates (Matrix Technologies). […] 200 nL of 10 mM compound (50 µM final concentrations) were then added and incubated for 5 minutes. Enzyme reactions were initiated with 10 µL of substrate Ac-DE-Dap(QXL520)-EE-Abu-ψ-[COO]AS-C(5-FAMsp)-NH2 (Anaspec) (1 µM final concentration), incubated for 6 minutes, and quenched by 10 µL of 10% SDS as a stop solution. Fluorescence intensity was monitored with a POLARstar OPTIMA microplate reader (BMG LABTECH). Each plate contained a total of 32 positive and 32 negative controls.
A series of compound concentrations (0 to 200 µM final concentration at 2-fold serial dilution) in 100% DMSO were prepared in a 384-well plate. 20 µL of enzyme solution was distributed to wells, and 0.5 µL of varying concentration of compounds were added and incubated for 5 minutes. The enzyme reaction was initiated by adding 5 µL of the substrate, and its activity was continuously monitored for 6 minutes. The IC50 values were calculated by fitting with the Hill equation (1), with OriginPro 8.5 (OriginLab, Inc.) where y is percent inhibition, x is inhibitor concentration, n is the slope of the concentration–response curve (Hill slope), and Vmax is maximal inhibition from two to four independent assays. [drawing 1] (1)

[2] = biological target: T2, full-length NS3/4A (Hepatitis C virus genotype 1b, UniProt Q9WMX2); assay: SPR binding assay (dissociation equilibrium constant KD); details: for SPR binding to NS3/4A, double referenced: double referenced with blank and unrelated reference protein
T2 construct: wild-type HCV NS3 (HCV polyprotein residues 1027–1657); His-tag (N); made in house
Method: The full-length NS3/4A enzyme was prepared in a storage buffer (50 mM HEPES, pH 7.6, 500 mM NaCl, 1 mM DTT, 0.2% Triton X-100, and 20% glycerol) and immobilized on a CM5 sensor chip using standard amine-coupling at 25°C with running buffer HBS-P (10 mM HEPES, 150 mM NaCl, 0.05% surfactant P-20, pH 7.4) using a Biacore T100 instrument. Flow channels 1 and 3 were activated by 1-ethyl-3-(3-dimethylaminopropyl) carbodiimide hydrocholoride (EDC)/N-hydroxy succinimide (NHS) mixture, and the activated surface was blocked by ethanolamine (pH 8.5) as controls. The NS3/4A enzyme was diluted in 10 mM sodium acetate (pH 5.0), and immobilized to flow channel 4 after sensor surface activation with EDC/NHS with a 7 min injection followed by ethanolamine blocking on unoccupied surface area. NS3/4A immobilization level was ∼8,500 response units (RU). An unrelated reference protein (92 kDa) was also immobilized to flow channel 2 as another control to be compared with NS3/4A (74.6 kDa). Fifteen initial hit compounds were prepared as 10 mM DMSO stock solutions. Compound solutions with a series of increasing concentrations (0–200 µM at 1.5-fold dilution) were applied to all four channels at a 10 µL/min flow rate at 25°C. Sensorgrams were analyzed using Biaevaluation software 2.0.3, and response unit difference (ΔRU) values at each concentration were measured during the equilibration phase. Data were either single referenced with a blank (enthanolamine) or double referenced with both blank and reference protein RU values. SigmaPlot 11.0 was used to fit the data to a single rectangular hyperbolic curve to determine KD values. The hyperbola function, y = ymax·x/(KD+x), was used to plot response units and corresponding concentration, where y is the response, ymax is the maximum response, and x is the compound concentration.

[3] = biological target: T2, full-length NS3/4A; assay: Type (mechanism) of enzyme inhibition, kinetic analysis; assay type: biochemical
Method: Full-length NS3/4A activity was monitored in the same way as the primary screening with varying concentration of both inhibitor compounds and substrate (0–8 µM). The concentration of compounds varied from 0 to 20 µM at 1.5-fold dilution factor.

[4] = biological target: T3, NS3/4A protease genotype 1a (Hepatitis C virus genotype 1a, UniProt P27958); assay: Inhibition assay with NS3/4A from genotype 1a; assay type: biochemical; details: IC50 NS3/4A genotype 1a
T3 construct: against the NS3/4A protease domains from three additional HCV genotypes (1a, 2a, and 4d); purchased Anaspec
Method: (§1) The inhibitory activity of the final hit compounds from HTS were tested against three other HCV genotypes (1a, 2a, and 4d), along with a control (genotype 1b) and five NS3 drug-resistant mutants. Eight full-length NS3 mutants (V36M, R155K, A156T, A156S, 156V, V36A, T54A, and R155T) were generated by mutagenesis and purified, and the three HCV NS3/4A protease genotypes were purchased from Anaspec. Unfortunately the enzyme activities of the three mutants V36A, T54A, and R155T were much less than that of the rest of the mutants and were insufficient for testing, therefore mutant studies were done with the five active mutants. Continuous kinetic assays were performed against all hit compounds in the same way as the wild-type NS3/4A. As a control, full-length NS3/4A (genotype 1b) was tested under the same conditions for direct comparison for each plate.

[5] = biological target: T4, NS3/4A protease genotype 2a (Hepatitis C virus genotype 2a, UniProt Q99IB8); assay: Inhibition assay with NS3/4A from genotype 2a; assay type: biochemical; details: IC50 Purified NS3/4A Sub-genotype 2a, genotype 2a
T4 construct: against the NS3/4A protease domains from three additional HCV genotypes (1a, 2a, and 4d); purchased Anaspec
Method: as §1

[6] = biological target: NS3/4A protease genotype 4d (Hepatitis C virus subtype 4d, UniProt Q1ZZ56); assay: Inhibition assay with NS3/4A from genotype 4d; assay type: biochemical
Method: as §1

[7] = biological target: T5, full-length NS3/4A genotype 1b mutant A156T (Hepatitis C virus genotype 1b, UniProt Q9WMX2, A1182T); assay: Inhibition assay with drug-resistant mutant A156T; assay type: biochemical; details: in words
T5 construct: wild-type HCV NS3 (HCV polyprotein residues 1027–1657); His-tag (N); made in house
Method: (§2) The full-length genes of wild-type HCV NS3 (HCV polyprotein residues 1027–1657) with a his-tag at the N-terminus and NS4A (residues 1658–1711) with no tag were cloned, co-expressed, and purified as described. Eight NS3 drug resistant mutants (V36M, V36A, T54A, R155K, R155T, A156T, A156S, and 156V) were generated by mutagenesis using full-length, wild-type NS3-containing recombinant plasmid (pETDuet-1/FL NS3/4A) as a template. The over-expression and purification of all mutants were performed by the same method as the wild-type with minor modifications.
as §1, with “As a control, full-length NS3/4A (genotype 1b) was tested under the same conditions for direct comparison for each plate.” left out

[8] = biological target: T6, full-length NS3/4A genotype 1b mutant A156S (Hepatitis C virus genotype 1b, UniProt Q9WMX2, A1182S); assay: Inhibition assay with drug-resistant mutant A156S; assay type: biochemical; details: in words
T6 construct: wild-type HCV NS3 (HCV polyprotein residues 1027–1657); His-tag (N); made in house
Method: as §2
as §1, with “As a control, full-length NS3/4A (genotype 1b) was tested under the same conditions for direct comparison for each plate.” left out

[9] = biological target: T7, full-length NS3/4A genotype 1b mutant A156V (Hepatitis C virus genotype 1b, UniProt Q9WMX2, A1182V); assay: Inhibition assay with drug-resistant mutant A156V; assay type: biochemical; details: genotype 1b full-length mutant
T7 construct: wild-type HCV NS3 (HCV polyprotein residues 1027–1657); His-tag (N); made in house
Method: as §2
as §1, with “As a control, full-length NS3/4A (genotype 1b) was tested under the same conditions for direct comparison for each plate.” left out

[10] = biological target: T8, full-length NS3/4A genotype 1b mutant R155K (Hepatitis C virus genotype 1b, UniProt Q9WMX2, R1181K); assay: Inhibition assay with drug-resistant mutant R155K; assay type: biochemical; details: in words
T8 construct: wild-type HCV NS3 (HCV polyprotein residues 1027–1657); His-tag (N); made in house
Method: as §2
as §1, with “As a control, full-length NS3/4A (genotype 1b) was tested under the same conditions for direct comparison for each plate.” left out

[11] = biological target: T9, full-length NS3/4A genotype 1b mutant V36M (Hepatitis C virus genotype 1b, UniProt Q9WMX2, V1062M); assay: Inhibition assay with drug-resistant mutant V36M; assay type: biochemical; details: genotype 1b full-length mutant
T9 construct: wild-type HCV NS3 (HCV polyprotein residues 1027–1657); His-tag (N); made in house
Method: as §2
as §1, with “As a control, full-length NS3/4A (genotype 1b) was tested under the same conditions for direct comparison for each plate.” left out

[12] = biological target: T10, Trypsin (Homo sapiens, UniProt P07477); assay: Inhibitor selectivity assay, trypsin (fluorometric); assay type: biochemical
T10 construct: purchased Sigma
Method: (§3) To test for selectivity, two human serine proteases, Trypsin and Chymotrypsin (Sigma), were tested with the top two hit compounds from HTS using a fluorometric assay. The fluorogenic substrates used in this study were N-benzoyl-L-Arg-7-amido-4-methylcoumarin (Sigma) and N-succinyl-Ala-Ala-Phe-7-amido-4- methylcoumarin (Sigma) for trypsin and chymotrypsin, respectively. All assays were performed in 384-well black plates (Corning) in a total volume of 24 µL of PBS (pH 7.4) buffer containing 0.01% Triton, 0.1 mg/mL BSA, and 2 mM GSH in triplicate. A series of compound concentrations (0 to 200 µM final concentration at 2-fold serial dilution) in 100% DMSO was prepared in a 384-well plate. 20 µL of trypsin (0.01 mg/mL) and chymotrypsin (0.0001 mg/mL) solutions were distributed into wells, and 0.5 µL of varying concentration of compounds were added and incubated for 10 minutes. The enzyme reaction was initiated by adding 5 µL of the substrate (50 µM final concentration), and fluorescence intensity was continuously monitored at excitation/emission wavelengths of 350 nm/460 nm for 10 minutes.

[13] = biological target: T11, Chymotrypsin (Homo sapiens, UniProt P17538); assay: Inhibitor selectivity assay, chymotrypsin (fluorometric); assay type: biochemical; details: human chymotrypsin
T11 construct: purchased Sigma
Method: as §3

[14] = biological target: T12, full-length NS3/4A enzyme complex (Hepatitis C virus genotype 1b, UniProt Q9WMX2); assay: Reversibility of inhibition by dilution; assay type: biochemical; details: dilution 25-fold and 50-fold
T12 construct: wild-type HCV NS3 (HCV polyprotein residues 1027–1657); His-tag (N); made in house
Method: The reversibility of hit compounds was determined by dilution. The full-length NS3/4A enzyme complex was prepared as 20-fold (200 nM) of the assay concentration and was incubated with screened compounds at 20-fold IC50 value or slightly higher concentration for 30 minutes at room temperature in the same assay condition as the primary screen in a final volume of 100 µL. The concentration of enzyme and testing compound was optimized to yield at least 95% inhibition before dilution. The NS3/4A enzyme with the same volume of DMSO in place of each compound was also prepared as a control. NS3/4A activity was measured in the same way as the IC50 measurements. Then enzyme-inhibitor solution was diluted 25-fold and 50-fold and incubated for 30 minutes before measuring the percent recovery of the enzyme activity. All reversibility assays were done in triplicate.

T11 sequence (P17538 19-263): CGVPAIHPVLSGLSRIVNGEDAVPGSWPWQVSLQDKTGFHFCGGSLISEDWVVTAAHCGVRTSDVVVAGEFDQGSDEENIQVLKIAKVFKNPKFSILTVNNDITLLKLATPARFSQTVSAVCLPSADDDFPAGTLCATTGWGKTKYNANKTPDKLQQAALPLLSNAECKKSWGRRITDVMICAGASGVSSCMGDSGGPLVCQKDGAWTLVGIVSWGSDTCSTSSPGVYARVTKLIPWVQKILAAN

Row | Compound | IC50 [1] [µM] | SPR binding to NS3/4A, double referenced [2] | Ki ([3]; competitive model, with respect to substrate) [µM] | mechanism of inhibition ([3]; with respect to the substrate, best fit model) | IC50 [4] | IC50 [5] [µM] | IC50 [6] [µM] | activity against mutant A156T compared with wild-type [7] | activity against mutant A156S compared with wild-type [8] | IC50 [9] [µM] | activity against mutant R155K compared with wild-type [10] | IC50 [11] [µM] | inhibition at 100 µM ([12]; 100 µM compound, read-out: Trypsin % Inh at 100 µM) [%] | IC50 ([12]; human trypsin) [µM] | IC50 [13] [µM] | Kd ([2]; SPR, 25°C, single rectangular hyperbolic fit) [µM] | reversibility of inhibition [14]
1 | CC(C)C(=O)N1CCc2ccc(NC(=O)COc3ccc(F)cc3)cc2C1 [Compound 13] | 20.2 ± 2.2 | specific binding | 19.1 | competitive inhibitors | 1.7 µM and < 20 µM | < 20 | < 20 | decreased in activity | decreased in activity | < 20 | completely lost activity | < 20 | 5.1 | > 100 | 110 ± 32 | – | –
2 | CC1(C)CCc2cc(/C=C(\C#N)C(=O)c3cccc(C(F)(F)F)c3)ccc2O1 [Compound 6] | 7.6 ± 0.6 | specific binding | – | – | – | – | – | – | – | – | – | – | – | – | – | 8.3 ± 1.9 | reversible
